The values that follow are results of earlier work, collected in patent US20090098173A1, “TOPICAL PAIN RELIEF PRODUCT” (priority 2007, published 2009).

The conditions of this data set: as described in U.S. Pat. No. 7,189,760 / 7,030,273.

On to `CCOC(=O)CNC(=O)C1CC(C)CCC1C(C)C` (stereo not shown) [ethyl ester of N-[[5-methyl-2-(1-methylethyl)cyclohexyl]carbonyl]glycine], for which the physiological cooling activity entry is “substantially high physiological cooling activity”.
